Results from patent US20120029190A1, “COMPOUNDS FOR TREATING DISORDERS MEDIATED BY METABOTROPIC GLUTAMATE RECEPTOR 5, AND METHODS OF USE THEREOF” (priority 2009, published 2012).

Target: T1, human recombinant mGluR5 receptor (Homo sapiens, UniProt P41594)
T1 construct: expressed in transfected cells; expression induced with doxycycline
Assay: mGluR5 in vitro functional assay (aequorin cell line, inhibition of glutamate EC80 response)
Assay type: cell-based
Conditions: Table 2; aequorin cell line expressing human mGluR5, reference agonist glutamate at EC80; obtained in duplicate; read-out: IC50
Procedure, shortened: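 Doxycycline-induced (600 ng/mL, 18 h) aequorin cells loaded with coelenterazine h ≥4 h at room temperature; compound preincubated 3 min before glutamate at EC80. Luminescence recorded, normalized to digitonin or 20 mM ATP wells; % inhibition of EC80 response fitted by sigmoidal nonlinear regression.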

T1 sequence (P41594 21-1212): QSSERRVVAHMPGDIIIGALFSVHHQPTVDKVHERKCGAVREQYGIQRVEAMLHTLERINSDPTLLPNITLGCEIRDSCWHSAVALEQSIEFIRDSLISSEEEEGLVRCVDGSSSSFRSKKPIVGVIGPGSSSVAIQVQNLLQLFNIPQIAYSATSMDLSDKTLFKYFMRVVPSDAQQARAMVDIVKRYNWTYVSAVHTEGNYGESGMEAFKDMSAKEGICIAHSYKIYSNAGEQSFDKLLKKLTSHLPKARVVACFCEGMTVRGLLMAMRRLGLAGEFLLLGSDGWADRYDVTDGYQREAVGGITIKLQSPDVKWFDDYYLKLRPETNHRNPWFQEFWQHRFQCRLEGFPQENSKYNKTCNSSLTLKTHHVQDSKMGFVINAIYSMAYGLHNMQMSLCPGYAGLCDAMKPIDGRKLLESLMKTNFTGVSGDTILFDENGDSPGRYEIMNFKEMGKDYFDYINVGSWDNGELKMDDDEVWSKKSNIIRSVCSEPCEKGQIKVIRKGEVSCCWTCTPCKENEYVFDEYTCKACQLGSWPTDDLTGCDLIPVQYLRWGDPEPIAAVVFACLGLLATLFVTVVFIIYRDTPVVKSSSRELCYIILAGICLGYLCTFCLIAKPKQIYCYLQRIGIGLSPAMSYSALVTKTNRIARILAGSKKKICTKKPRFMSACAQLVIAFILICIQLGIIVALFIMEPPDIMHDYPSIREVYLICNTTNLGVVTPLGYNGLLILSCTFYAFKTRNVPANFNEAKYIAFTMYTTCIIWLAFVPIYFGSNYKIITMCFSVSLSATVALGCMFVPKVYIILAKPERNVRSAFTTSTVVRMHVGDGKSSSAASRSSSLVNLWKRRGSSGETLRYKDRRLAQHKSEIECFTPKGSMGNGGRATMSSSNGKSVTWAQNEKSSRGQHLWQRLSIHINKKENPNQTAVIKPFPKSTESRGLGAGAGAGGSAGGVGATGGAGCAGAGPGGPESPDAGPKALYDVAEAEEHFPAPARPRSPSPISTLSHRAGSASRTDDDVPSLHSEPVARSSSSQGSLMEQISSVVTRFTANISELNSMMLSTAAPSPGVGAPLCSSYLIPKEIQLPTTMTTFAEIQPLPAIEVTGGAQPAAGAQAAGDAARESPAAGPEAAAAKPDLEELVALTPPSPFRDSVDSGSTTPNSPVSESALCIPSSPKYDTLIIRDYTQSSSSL

Compound | IC50
Fc1cccc(N2CCCc3oc(-c4cnccn4)nc3C2)c1 [Compound 139, 5-(3-fluorophenyl)-2-(pyrazin-2-yl)-5,6,7,8-tetrahydro-4H-oxazolo[4,5-c]azepine] | < 10 µM
N#Cc1cc(F)cc(N2CCCc3oc(-c4cnccn4)nc3C2)c1 [Compound 141, 3-fluoro-5-(2-(pyrazin-2-yl)-7,8-dihydro-4H-oxazolo[4,5-c]azepin-5(6H)-yl)benzonitrile] | < 1 µM
Fc1ccc(N2CCCc3oc(-c4ccccn4)nc3C2)cc1Cl [Compound 144, 5-(3-chloro-4-fluorophenyl)-2-(pyridin-2-yl)-5,6,7,8-tetrahydro-4H-oxazolo[4,5-c]azepine] | < 1 µM
Fc1ccc(N2CCc3oc(-c4ccccn4)nc3C2)cc1Cl [Compound 146, 5-(3-chloro-4-fluorophenyl)-2-(pyridin-2-yl)-4,5,6,7-tetrahydrooxazolo[4,5-c]pyridine] | < 1 µM
N#Cc1cccc(N2CCc3nc(C4CCCCC4)oc3C2)c1 [Compound 149, 3-(2-Cyclohexyl-6,7-dihydrooxazolo[5,4-c]pyridin-5(4H)-yl)benzonitrile] | < 10 µM
O=C(CN1CCc2nc(-c3ccccn3)oc2C1)c1ccc(F)cc1 [Compound 150, 1-(4-Fluorophenyl)-2-(2-(pyridin-2-yl)-6,7-dihydrooxazolo[5,4-c]pyridin-5(4H)-yl)ethanone] | > 10 µM
COC(=O)N1CCc2oc(-c3ccccn3)nc2C1 [Compound 151, Methyl 2-(pyridin-2-yl)-6,7-dihydrooxazolo[4,5-c]pyridine-5(4H)-carboxylate] | > 10 µM
c1ccc(-c2nc3c(o2)CCN(c2cccnc2)C3)nc1 [Compound 154, 2-(Pyridin-2-yl)-5-(pyridin-3-yl)-4,5,6,7-tetrahydrooxazolo[4,5-c]pyridine] | < 1 µM
N#Cc1cc(F)cc(N2CCc3oc(Cc4ccccc4)nc3C2)c1 [Compound 155, 3-(2-Benzyl-6,7-dihydrooxazolo[4,5-c]pyridin-5(4H)-yl)-5-fluorobenzonitrile] | > 10 µM
Fc1cc(Cl)cc(N2CCc3oc(-c4ccccn4)nc3C2)c1 [Compound 158, 5-(3-Chloro-5-fluorophenyl)-2-(pyridin-2-yl)-4,5,6,7-tetrahydrooxazolo[4,5-c]pyridine] | < 1 µM
Fc1ccc(-c2nc3c(o2)CCN(c2cc(F)cc(Cl)c2)C3)nc1 [Compound 159, 5-(3-Chloro-5-fluorophenyl)-2-(5-fluoropyridin-2-yl)-4,5,6,7-tetrahydrooxazolo[4,5-c]pyridine] | < 1 µM
Cc1nc(-c2nc3c(o2)CCN(c2ccccn2)C3)cs1 [Compound 161, 2-(2-Methylthiazol-4-yl)-5-(pyridin-2-yl)-4,5,6,7-tetrahydrooxazolo[4,5-c]pyridine] | < 1 µM
Clc1cc(Cl)cc(N2CCc3oc(-c4ccccn4)nc3C2)c1 [Compound 162, 5-(3,5-Dichlorophenyl)-2-(pyridin-2-yl)-4,5,6,7-tetrahydrooxazolo[4,5-c]pyridine] | < 1 µM
Cc1nc(N2CCc3oc(-c4ccccn4)nc3C2)cs1 [Compound 163, 5-(2-Methylthiazol-4-yl)-2-(pyridin-2-yl)-4,5,6,7-tetrahydrooxazolo[4,5-c]pyridine] | < 1 µM
N#Cc1cc(F)ccc1N1CCc2oc(-c3ccccn3)nc2C1 [Compound 165, 5-Fluoro-2-(2-(pyridin-2-yl)-6,7-dihydrooxazolo[4,5-c]pyridin-5(4H)-yl)benzonitrile] | < 1 µM
Fc1ccc(-c2nc3c(o2)CCN(c2ccccc2Cl)C3)nc1 [Compound 167, 5-(2-Chlorophenyl)-2-(5-fluoropyridin-2-yl)-4,5,6,7-tetrahydrooxazolo[4,5-c]pyridine] | < 1 µM
Clc1ccccc1N1CCc2oc(-c3ccncn3)nc2C1 [Compound 168, 5-(2-Chlorophenyl)-2-(pyrimidin-4-yl)-4,5,6,7-tetrahydrooxazolo[4,5-c]pyridine] | < 10 µM
Cc1nc(-c2nc3c(o2)CCN(c2ccccc2Cl)C3)cs1 [Compound 172, 5-(2-Chlorophenyl)-2-(2-methylthiazol-4-yl)-4,5,6,7-tetrahydrooxazolo[4,5-c]pyridine] | < 1 µM
Clc1ccc(Cl)c(N2CCc3oc(-c4ccccn4)nc3C2)c1 [Compound 173, 5-(2,5-Dichlorophenyl)-2-(pyridin-2-yl)-4,5,6,7-tetrahydrooxazolo[4,5-c]pyridine] | < 1 µM
Clc1cccc(Cl)c1N1CCc2oc(-c3ccccn3)nc2C1 [Compound 174, 5-(2,6-Dichlorophenyl)-2-(pyridin-2-yl)-4,5,6,7-tetrahydrooxazolo[4,5-c]pyridine] | < 1 µM
Fc1ccc(Cl)c(N2CCc3oc(-c4ccccn4)nc3C2)c1 [Compound 175, 5-(2-Chloro-5-fluorophenyl)-2-(pyridin-2-yl)-4,5,6,7-tetrahydrooxazolo[4,5-c]pyridine] | < 1 µM
COc1ccccc1N1CCc2oc(-c3ccccn3)nc2C1 [Compound 177, 5-(2-Methoxyphenyl)-2-(pyridin-2-yl)-4,5,6,7-tetrahydrooxazolo[4,5-c]pyridine] | < 1 µM
COc1ccc(F)cc1N1CCc2oc(-c3ccccn3)nc2C1 [Compound 179, 5-(5-Fluoro-2-methoxyphenyl)-2-(pyridin-2-yl)-4,5,6,7-tetrahydrooxazolo[4,5-c]pyridine] | < 1 µM
N#Cc1ccccc1N1CCc2oc(-c3ccccn3)nc2C1 [Compound 180, 2-(2-(Pyridin-2-yl)-6,7-dihydrooxazolo[4,5-c]pyridin-5(4H)-yl)benzonitrile] | < 1 µM
FC(F)(F)c1ccccc1N1CCc2oc(-c3ccccn3)nc2C1 [Compound 182, 2-(Pyridin-2-yl)-5-(2-(trifluoromethyl)phenyl)-4,5,6,7-tetrahydrooxazolo[4,5-c]pyridine] | < 1 µM

Further lines, results first:

IC50 | Compound
< 1 µM | Clc1cccc(N2CCCc3oc(-c4ccncn4)nc3C2)c1 [Compound 137, 5-(3-chlorophenyl)-2-(pyrimidin-4-yl)-5,6,7,8-tetrahydro-4H-oxazolo[4,5-c]azepine]
< 1 µM | N#Cc1cc(F)cc(N2CCCc3oc(-c4ccncn4)nc3C2)c1 [Compound 138, 3-fluoro-5-(2-(pyrimidin-4-yl)-7,8-dihydro-4H-oxazolo[4,5-c]azepin-5(6H)-yl)benzonitrile]
< 10 µM | Clc1cccc(N2CCCc3oc(-c4cnccn4)nc3C2)c1 [Compound 140, 5-(3-chlorophenyl)-2-(pyrazin-2-yl)-5,6,7,8-tetrahydro-4H-oxazolo[4,5-c]azepine]
< 1 µM | Cc1nc(-c2nc3c(o2)CCCN(c2cc(F)cc(C#N)c2)C3)cs1 [Compound 145, 3-fluoro-5-(2-(2-methylthiazol-4-yl)-7,8-dihydro-4H-oxazolo[4,5-c]azepin-5(6H)-yl)benzonitrile]
< 10 µM | N#Cc1cccc(N2CCc3nc(-c4ccccc4)oc3C2)c1 [Compound 148, 3-(2-Phenyl-6,7-dihydrooxazolo[5,4-c]pyridin-5(4H)-yl)benzonitrile]
< 1 µM | Fc1ccc(N2CCc3oc(-c4ccccn4)nc3C2)cc1F [Compound 152, 5-(3,4-Difluorophenyl)-2-(pyridin-2-yl)-4,5,6,7-tetrahydrooxazolo[4,5-c]pyridine]
< 1 µM | Fc1cc(N2CCc3oc(-c4ccccn4)nc3C2)cc(F)c1F [Compound 153, 2-(Pyridin-2-yl)-5-(3,4,5-trifluorophenyl)-4,5,6,7-tetrahydrooxazolo[4,5-c]pyridine]
< 1 µM | Clc1ccccc1N1CCc2oc(-c3ccccn3)nc2C1 [Compound 156, 5-(2-Chlorophenyl)-2-(pyridin-2-yl)-4,5,6,7-tetrahydrooxazolo[4,5-c]pyridine]
< 1 µM | Clc1ccc(N2CCc3oc(-c4ccccn4)nc3C2)cc1 [Compound 157, 5-(4-Chlorophenyl)-2-(pyridin-2-yl)-4,5,6,7-tetrahydrooxazolo[4,5-c]pyridine]
> 10 µM | N#Cc1cc(F)cc(N2CCc3oc(-c4cncnc4)nc3C2)c1 [Compound 160, 3-Fluoro-5-(2-(pyrimidin-5-yl)-6,7-dihydrooxazolo[4,5-c]pyridin-5(4H)-yl)benzonitrile]
< 10 µM | N#Cc1cc(F)cc(-c2nc3c(o2)CCN(c2ccccn2)C3)c1 [Compound 164, 3-Fluoro-5-(5-(pyridin-2-yl)-4,5,6,7-tetrahydrooxazolo[4,5-c]pyridin-2-yl)benzonitrile]
< 1 µM | Fc1ccccc1N1CCc2oc(-c3ccccn3)nc2C1 [Compound 166, 5-(2-Fluorophenyl)-2-(pyridin-2-yl)-4,5,6,7-tetrahydrooxazolo[4,5-c]pyridine]
< 1 µM | Fc1ccc(F)c(N2CCc3oc(-c4ccccn4)nc3C2)c1 [Compound 169, 5-(2,5-Difluorophenyl)-2-(pyridin-2-yl)-4,5,6,7-tetrahydrooxazolo[4,5-c]pyridine]
< 1 µM | Clc1cccc(N2CCc3oc(-c4ccccn4)nc3C2)c1Cl [Compound 170, 5-(2,3-Dichlorophenyl)-2-(pyridin-2-yl)-4,5,6,7-tetrahydrooxazolo[4,5-c]pyridine]
< 1 µM | Fc1ccc(N2CCc3oc(-c4ccccn4)nc3C2)c(Cl)c1 [Compound 171, 5-(2-Chloro-4-fluorophenyl)-2-(pyridin-2-yl)-4,5,6,7-tetrahydrooxazolo[4,5-c]pyridine]
< 1 µM | N#Cc1ccc(F)cc1N1CCc2oc(-c3ccccn3)nc2C1 [Compound 176, 4-Fluoro-2-(2-(pyridin-2-yl)-6,7-dihydrooxazolo[4,5-c]pyridin-5(4H)-yl)benzonitrile]
< 1 µM | Oc1ccccc1N1CCc2oc(-c3ccccn3)nc2C1 [Compound 178, 2-(2-(Pyridin-2-yl)-6,7-dihydrooxazolo[4,5-c]pyridin-5(4H)-yl)phenol]
< 1 µM | c1ccc(-c2nc3c(o2)CCN(c2cccc4ccccc24)C3)nc1 [Compound 181, 5-(Naphthalen-1-yl)-2-(pyridin-2-yl)-4,5,6,7-tetrahydrooxazolo[4,5-c]pyridine]
